The values that follow come from patent publication US20110014204A1, “Cancer Chemoprevention Strategy Based on Loss of Imprinting of IGF2” (priority 2006, published 2011).

One test relates to mouse ES cells. Put plainly: IGF2 stimulation of mouse ES cells, gene expression by real-time RT-PCR, with or without NVP-AEW541. The note with it: 800 ng/ml Igf2, 3 μM NVP-AEW541, all time points. Type of test: cell-based. Here is the method: Mouse ES cells were cultured in defined medium and treated with 800 ng/ml mouse lgf2 protein. Gene expression was analyzed by real-time RT-PCR and normalized to β-actin. Shown is the expression level without (black boxes) and with (gray boxes) the IGF1R inhibitor 3 μM NVP-AEW541 (a pyrrolo-2,3d-pyrimidine), normalized to time 0. The bars indicate standard error.
Mouse ES cells were cultured in defined medium and treated with 800 ng/ml mouse lgf2 protein. Gene expression was analyzed by real-time RT-PCR and normalized to β-actin. Shown is the expression level without (black boxes) and with (pink boxes) the IGF1R R inhibitor 3 μM NVP-AEW541, normalized to time 0. The bar represents standard error.
For IGF2 stimulation, wild type ES cells were isolated as described above, and cultured in ESGRO Complete Basal Medium with 800 ng/ml of mouse Igf2 recombinant protein (StemCell Technologies), with or without 3 μM NVP-AEW541 (Novartis). Cells were washed with PBS twice and RNA was extracted using the RNeasy Kit (QIAGEN) at Oh, 3 h, 6 h, 10 h, and 24 h. Gene expression was assayed by real-time quantitative RT-PCR as described above.
It remained theoretically possible that the observed difference in gene expression simply reflected the over-representation of progenitor cells within the intestinal crypts, rather than a change in cellular gene expression per se. To confirm the latter, mouse embryonic stem (ES) cells were derived and plated in ESGRO Complete Clonal Grade defined medium (Chemicon), which contains no IGF2 and allows growth of undifferentiated ES cells without a feeder layer, which was done with or without 800 ng/ml of mouse Igf2 recombinant protein (StemCell Technologies). Consistent with the microarray experiments, Igf2 induced a 50% and 56% increase in Cdc6 gene expression at 3 and 6 hours, respectively, and 40% and 25% at 10 and 24 hours, respectively (FIG. 3).
In general terms: Quantitative PCR measures a nucleic acid by following its amplification.

Test [1] relates to aberrant crypt foci (ACF). The test is described as follows: Azoxymethane (AOM)-induced aberrant crypt foci (ACF) in LOI(+) and LOI(−) mice, NVP-AEW541 by oral gavage. The format is in vivo. The note with it: for AOM-induced ACF formation: AOM plus NVP-AEW541 50 mg/kg oral gavage for 6 weeks; for decrease in ACFs normalized to colon surface area: AOM, treated with the inhibitor. As to the method:
ACF formation in the colon was induced by AOM intraperitoneal injection, and treatment with NVP-AEW541 was by gastric gavage. Each ACF was formed of 1-4 aberrant crypts, and the number of ACF (# of ACF), the number of total aberrant crypts (# of AC), and the average number of aberrant crypts per ACF were measured.
(A) ACF formation in the colon was induced by AOM i.p. injection, and treatment with NVP-AEW541 was by gastric […]. Each ACF was formed of […] aberrant crypts, and the number of ACF (# of ACF), the number of total aberrant crypts (# of AC), and the average number of aberrant crypts per ACF were measured. LOI(+) AOM mice (dark gray bars), LOI(−) AOM mice (black bars), LOI(+) AOM NVP mice (light gray bars), LOI(−) AOM NVP mice (gray bars). (B) The number of ACF and the number of total aberrant crypts (AC) were corrected by colon surface area (cm^2).
7 week old LOI(+) and LOI(−) littermate controls were treated with AOM at 10 mg/kg body weight intraperitoneally once per week for three weeks, and euthanized 5 weeks after the first dose of AOM. The entire colon was resected from mice after laparotomy, flushed with PBS, filled with 10% buffered formalin (Sigma) for one minute, opened longitudinally, fixed flat between filter paper in formalin at 4° C. overnight, rinsed with PBS, and stained with 0.2% methylene blue in saline. The number of ACF per colon and the number of aberrant crypts per ACF were scored under a light microscopy as previously described Bird, Cancer Lett (1987) 37:147-151). NVP-AEW541 (50 mg/kg) was administered by oral gavage, beginning 1 week before AOM treatment, and NVP-AEW541 was administered 7 days/week, twice a day for 5 weekdays and once a day for 2 weekend days, for 6 weeks until sacrifice.
Because of known strain variation in progression of these lesions, littermate controls were treated with and without LOI, in which the dams were heterozygous for a deletion of the H19 differentially methylated region (DMR); inheritance of a maternal allele lacking the DMR leads to activation of the normally silent allele of Igf2 [LOI(+)], while inheritance of a wild type maternal allele leads to normal imprinting [LOI(−)]. Eight LOI(+) and 14 LOI(−) mice were given AOM intraperitoneally weekly for 3 weeks, sacrificed at 5 weeks after the first dose, and ACF were scored by the method of Bird (1987). Histologic examination of colons from AOM-treated mice confirmed the presence of ACF, with hyperproliferative features including increased mitosis, crypt enlargement and crypt disarray (FIG. 12). […] An additional intriguing finding in AOM-treated LOI(+) mice was cystically dilated crypts lined by enlarged cells with atypical nuclei and that contained necrotic debris, that were reminiscent of sessile serrated adenomas (SSAs) seen in the human colon (FIG. 12). SSAs also show crypt dilatation in association with cytologic atypia and are currently of immense interest for their recently recognized association with colorectal cancer (Snover et al., Am J Clin Pathol (2005) 124:380-391). It will thus be of interest to determine whether SSAs are associated with LOI in the human population.
An additional 9 LOI(+) mice and 9 LOI(−) control littermates were similarly exposed to AOM, adding treatment with NVP-AEW541, an IGF1R inhibitor, at a dose of 50 mg/kg by oral gavage daily for 6 weeks (twice daily except daily on weekends). […] Thus, LOI of lgf2 increases the sensitivity to AOM through an IGF1R-dependent mechanism.
Eight LOI(+) and 14 LOI(−) mice were given AOM intraperitoneally weekly for 3 weeks, sacrificed at 5 weeks after the first dose, and ACFs were scored as described (Bird (1987)). Histologic examination of colons from AOM-treated mice confirmed the presence of ACFs, with hyperproliferative features including increased mitosis, crypt enlargement and crypt disarray (FIG. 14A, B). […]

Another test deals with T1, IGF1 receptor (Mus musculus, UniProt Q60751).
T1 construct: endogenous in cells; host or cells: NIH 3T3 cells
Put plainly: Western blot of IGF2 signaling at the IGF1 receptor in NIH 3T3 cells with varying NVP-AEW541. Type of test: cell-based. The note with it: varying concentrations of NVP-AEW541, with or without IGF2. A general note: A western blot detects proteins with antibodies after separation by electrophoresis.

In the next test the target is IGF1R (Homo sapiens, UniProt P08069). The note with it: cited from earlier work.
Chain of IGF1R (P08069 31-1367, species assumed): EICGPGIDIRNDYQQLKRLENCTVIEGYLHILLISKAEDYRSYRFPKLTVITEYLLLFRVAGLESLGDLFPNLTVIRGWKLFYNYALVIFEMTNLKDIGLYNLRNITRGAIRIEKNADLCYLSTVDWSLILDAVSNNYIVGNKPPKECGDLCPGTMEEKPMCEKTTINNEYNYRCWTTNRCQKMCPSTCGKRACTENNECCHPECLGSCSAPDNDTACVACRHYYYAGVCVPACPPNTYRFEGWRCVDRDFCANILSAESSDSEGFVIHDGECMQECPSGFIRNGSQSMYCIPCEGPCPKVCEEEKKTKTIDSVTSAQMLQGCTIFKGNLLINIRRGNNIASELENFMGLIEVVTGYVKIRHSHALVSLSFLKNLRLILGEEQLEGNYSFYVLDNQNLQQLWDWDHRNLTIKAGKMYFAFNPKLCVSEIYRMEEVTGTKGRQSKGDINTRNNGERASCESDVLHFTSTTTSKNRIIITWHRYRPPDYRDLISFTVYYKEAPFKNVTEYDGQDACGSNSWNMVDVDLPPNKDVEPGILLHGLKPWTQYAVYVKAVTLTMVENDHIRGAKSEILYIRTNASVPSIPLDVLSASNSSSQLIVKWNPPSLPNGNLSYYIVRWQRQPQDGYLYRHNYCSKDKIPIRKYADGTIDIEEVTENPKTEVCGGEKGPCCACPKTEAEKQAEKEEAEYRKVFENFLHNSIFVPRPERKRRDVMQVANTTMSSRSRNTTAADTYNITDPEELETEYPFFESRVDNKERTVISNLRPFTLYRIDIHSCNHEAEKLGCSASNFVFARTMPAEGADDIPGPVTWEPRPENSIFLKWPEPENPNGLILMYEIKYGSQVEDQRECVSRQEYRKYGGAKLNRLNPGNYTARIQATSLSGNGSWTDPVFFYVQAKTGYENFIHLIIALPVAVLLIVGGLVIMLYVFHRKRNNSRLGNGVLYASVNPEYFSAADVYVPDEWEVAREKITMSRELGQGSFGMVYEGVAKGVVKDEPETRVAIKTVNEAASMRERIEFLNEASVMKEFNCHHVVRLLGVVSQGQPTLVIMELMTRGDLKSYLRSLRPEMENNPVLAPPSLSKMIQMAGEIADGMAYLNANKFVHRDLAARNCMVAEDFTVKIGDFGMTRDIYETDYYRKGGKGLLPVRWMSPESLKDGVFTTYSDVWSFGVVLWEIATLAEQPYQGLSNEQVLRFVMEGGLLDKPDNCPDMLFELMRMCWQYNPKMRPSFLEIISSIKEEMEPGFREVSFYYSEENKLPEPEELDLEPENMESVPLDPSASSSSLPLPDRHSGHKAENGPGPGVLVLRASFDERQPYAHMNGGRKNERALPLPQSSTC

T1 sequence (Q60751 31-1373): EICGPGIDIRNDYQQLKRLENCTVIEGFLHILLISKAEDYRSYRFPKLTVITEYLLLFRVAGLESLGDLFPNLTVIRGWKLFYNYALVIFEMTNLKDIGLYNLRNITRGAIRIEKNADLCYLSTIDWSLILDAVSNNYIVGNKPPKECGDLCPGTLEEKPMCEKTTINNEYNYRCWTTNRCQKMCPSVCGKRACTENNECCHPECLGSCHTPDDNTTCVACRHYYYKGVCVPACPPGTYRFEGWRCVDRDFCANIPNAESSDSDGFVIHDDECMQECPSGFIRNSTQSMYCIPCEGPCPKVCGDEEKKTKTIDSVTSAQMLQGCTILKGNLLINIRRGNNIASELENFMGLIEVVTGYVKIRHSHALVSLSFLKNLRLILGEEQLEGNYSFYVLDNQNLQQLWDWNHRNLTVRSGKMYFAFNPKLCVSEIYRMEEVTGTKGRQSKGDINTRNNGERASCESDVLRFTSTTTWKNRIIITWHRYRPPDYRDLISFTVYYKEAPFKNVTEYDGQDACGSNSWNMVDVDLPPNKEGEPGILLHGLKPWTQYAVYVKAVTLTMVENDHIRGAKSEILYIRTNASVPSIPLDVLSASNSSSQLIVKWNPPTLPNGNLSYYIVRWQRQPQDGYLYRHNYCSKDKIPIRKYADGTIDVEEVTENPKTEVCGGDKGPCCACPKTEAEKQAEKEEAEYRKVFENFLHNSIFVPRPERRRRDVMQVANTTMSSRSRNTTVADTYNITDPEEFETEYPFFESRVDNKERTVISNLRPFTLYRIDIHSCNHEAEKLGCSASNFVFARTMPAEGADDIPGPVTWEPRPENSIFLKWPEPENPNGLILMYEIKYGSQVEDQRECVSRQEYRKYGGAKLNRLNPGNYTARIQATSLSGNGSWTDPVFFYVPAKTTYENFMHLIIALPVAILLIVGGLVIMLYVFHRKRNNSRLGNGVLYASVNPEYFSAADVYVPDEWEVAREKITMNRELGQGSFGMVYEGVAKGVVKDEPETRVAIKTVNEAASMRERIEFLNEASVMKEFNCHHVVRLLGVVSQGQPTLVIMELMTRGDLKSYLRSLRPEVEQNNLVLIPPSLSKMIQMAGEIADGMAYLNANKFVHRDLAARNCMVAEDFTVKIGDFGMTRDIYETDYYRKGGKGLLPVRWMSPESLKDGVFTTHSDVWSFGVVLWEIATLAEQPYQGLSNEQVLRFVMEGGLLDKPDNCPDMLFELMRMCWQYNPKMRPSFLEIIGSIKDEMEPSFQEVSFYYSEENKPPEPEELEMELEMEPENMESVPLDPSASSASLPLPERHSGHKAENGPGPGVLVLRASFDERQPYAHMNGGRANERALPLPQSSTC
Description for IGF1 receptor: NIH 3T3 cells were passaged every 3 days and maintained with low glucose DMEM plus 10% CBS in 5% CO2. The day prior to transfection cells were trypinsized and seeded into PLL-coated glass bottom Mattek dishes. Cells typically reached about 70% confluence the next day, when they were transfected with eGFP-Akt-PH plasmid with Fugene lipid following the manufacturer's instructions. 8 hours after transfection, cells were starved in 0.2% CBS in low glucose DMEM (with no antibiotics) for at least 12 hours. Western blots were performed with the antibodies shown, and varying concentrations of NVP-AEW541, with or without IGF2.

With `Nc1ncnc2c1c(-c1cccc(OCc3ccccc3)c1)cn2C1CC(CN2CCC2)C1` (stereo not shown) [NVP-AEW541], the “effect on IGF2-induced increased expression of Cdc6” value with mouse ES cells is “completely abrogated”. The “AOM-induced ACF formation” value is given as 7.8±1.2 ACF per colon in test [1] (LOI(+) mice) and 11.3±1.6 ACF per colon in test [1] (LOI(−) mice). Moreover, the “decrease in ACFs normalized to colon surface area” value was 56% in test [1] (LOI(+) mice) and “no decrease” in test [1] (LOI(−) mice). In addition, at IGF1 receptor, the “inhibition of IGF2 signaling at the IGF1 receptor” value is “blocks IGF2 at IGF1R”. Further, the “selectivity for IGF1R over the insulin receptor” value on IGF1R is reported as “specifically inhibits IGF1R over the related insulin receptor”.
